No end group written: not given here.
Test system: Autologous DCs pulsed with the IsoMSLN peptide
Experiment: DC-T-cell co-culture immunogenicity, 4-hour Calcein-AM-release cytotoxicity assay
Format: cell-based
Details: E/T ratio 10:1 and 5:1; peripheral blood mononuclear cells of a healthy individual; control unrelated HIV peptide; FIG. 5
Description: The peptide unique to the isoform variant (i.e., PQAPRRPL (SEQ ID NO: 19)) was then tested for immunogenicity using a dendritic cell (DC)- T-cell co-culture system as previously described (Chiriva-Internati et al. Blood. 2002 Aug. 1;100(3):961-5). A standard 4-hour Calcein-AM-release assay was performed to determine the cytotoxic activity of the IsoMSLN peptide stimulated T cells. Autologous DCs pulsed with the IsoMSLN peptide or with an unrelated peptide (derived from HIV), were used as target cells (at an effector-target cell [E/T] ratio of 10:1 and 5:1).

Sequence: PQAPRRPL [PQAPRRPL]
- immunogenicity (cytotoxic activity of peptide stimulated T cells, percent specific killing): immunogenic
